According to ChEMBL document CHEMBL3351617, “Concise syntheses of 7-anilino-indoline-N-benzenesulfonamides as antimitotic and vascular disrupting agents” (Bioorg Med Chem, 2014):
Active and inactive are the calls of the source. The calls are words filed in the database; no cut-off is given here.

What was measured:
[1] = Antiproliferative activity against human KB-7d cells; assay type: functional, cell-based; conditions: KB7D
KB [2] = experiment: Antiproliferative activity against human KB cells; assay type: functional, cell-based
HT-29 [3] = experiment: Antiproliferative activity against human HT-29 cells; assay type: functional, cell-based
[4] = Antiproliferative activity against human MKN45 cells; assay type: functional, cell-based; conditions: MKN-45
[5] = Retention time of the compound by HPLC; assay type: physicochemical
[6] = Antiproliferative activity against human KB-VIN10 cells; assay type: functional, cell-based
[7] = Antiproliferative activity against human KB-S15 cells; assay type: functional, cell-based
Tubulin = experiment: Inhibition of tubulin (unknown origin) polymerization by spectrophotometry; assay type: protein-complex assay, Homo sapiens
Tubulin (Homo sapiens) [8] = target: T1, Tubulin (Homo sapiens) (UniProt P68371+Q9H4B7+P0DPH7+P68366+Q13509+Q71U36+P04350+Q3ZCM7+P07437+P68363+Q9BQE3+Q6PEY2+Q13885+Q9BVA1+Q9BUF5); experiment: Displacement of [3H]colchicine from long-chain biotin-labeled tubulin (unknown origin) at 1 uM after 2 hrs by competition-binding scintillation proximity assay; assay type: protein-complex assay
Tubulin (Homo sapiens) [9] = target: T1, Tubulin (Homo sapiens); experiment: Competitive inhibition of [3H]colchicine binding to long-chain biotin-labeled tubulin (unknown origin) after 2 hrs by double-reciprocal plot analysis; assay type: protein-complex assay
Tubulin (Homo sapiens) [10] = target: T1, Tubulin (Homo sapiens); experiment: Inhibition of MAP-rich tubulin (unknown origin) polymerization measured every 30 seconds for 30 mins by spectrophotometry; assay type: protein-complex assay
Tubulin (Homo sapiens) [11] = target: T1, Tubulin (Homo sapiens); experiment: Inhibition of MAP-rich tubulin (unknown origin) polymerization at 10 uM measured every 30 seconds for 30 mins by spectrophotometry; assay type: protein-complex assay
KB [12] = experiment: Cell cycle arrest in human KB cells assessed as accumulation at G2/M phase after 24 hrs using propidium iodide staining by flow cytometry; assay type: functional, cell-based
KB [13] = experiment: Cell cycle arrest in human KB cells assessed as reduction of cells at G1 phase at 25 to 400 nM after 24 hrs using propidium iodide staining by flow cytometry; assay type: functional, cell-based
KB [14] = experiment: Cell cycle arrest in human KB cells assessed as reduction of cells at S phase at 25 to 400 nM after 24 hrs using propidium iodide staining by flow cytometry; assay type: functional, cell-based
KB [15] = experiment: Cell cycle arrest in human KB cells assessed as accumulation of cells at sub-G1 phase at 100 nM after 24 hrs using propidium iodide staining by flow cytometry; assay type: functional, cell-based
HUVEC [16] = experiment: Disruption of vasculature in HUVECs assessed as inhibition of VEGF-induced capillary tube formation by microscopy; assay type: functional, cell-based; conditions: Homo sapiens
HUVEC [17] = experiment: Disruption of vasculature in HUVECs assessed as inhibition of VEGF-induced capillary tube formation at 100 nM by microscopy; assay type: functional, cell-based; conditions: Homo sapiens
HUVEC [18] = experiment: Cytotoxicity against HUVECs assessed as reduction in cell viability at 100 nM; assay type: cell-based; conditions: human, 0.1 µM
Tubulin (Homo sapiens) [19] = target: T1, Tubulin (Homo sapiens); experiment: Displacement of [3H]colchicine from long-chain biotin-labeled tubulin (unknown origin) at 5 uM after 2 hrs by competition-binding scintillation proximity assay; assay type: protein-complex assay
KB [20] = experiment: Ratio of ABT751 IC50 to compound IC50 for human KB cells; assay type: functional
HT-29 [21] = experiment: Ratio of ABT751 IC50 to compound IC50 for human HT-29 cells; assay type: functional
MKN-45 = experiment: Ratio of ABT751 IC50 to compound IC50 for human MKN45 cells; assay type: functional

| Structure (SMILES) | IC50 [1] [nM] | IC50 (KB [2]) [nM] | IC50 (HT-29 [3]) [nM] | IC50 [4] [nM] | Retention_time [5] [min] | other results |
| --- | --- | --- | --- | --- | --- | --- |
| CC[C@]1(O)C[C@H]2CN(CCc3c([nH]c4ccccc34)[C@@](C(=O)OC)(c3cc4c(cc3OC)N(C=O)[C@H]3[C@@](O)(C(=O)OC)[C@H](OC(C)=O)[C@]5(CC)C=CCN6CC[C@]43[C@@H]65)C2)C1 [VINCRISTINE] | 1.2 |  |  |  |  |  |
| COc1ccc(S(=O)(=O)N2CCc3cccc(Nc4ccccc4)c32)cc1 |  | 342 | 343 | 187 | 44.81 |  |
| COc1ccc(S(=O)(=O)N2CCc3cccc(Nc4ccc(O)cc4)c32)cc1 |  | 239 | 511 | 493 | 32 |  |
| COc1cc([C@@H]2c3cc4c(cc3[C@@H](O[C@@H]3O[C@@H]5CO[C@@H](C)O[C@H]5[C@H](O)[C@H]3O)[C@H]3COC(=O)[C@H]23)OCO4)cc(OC)c1O [ETOPOSIDE] | 54000 |  |  |  |  | IC50 [6]: 23000 nM; IC50 [7]: 3500 nM |
| CC(=O)O[C@H]1C(=O)[C@@]2(C)[C@H]([C@H](OC(=O)c3ccccc3)[C@]3(O)C[C@H](OC(=O)[C@H](O)[C@@H](NC(=O)c4ccccc4)c4ccccc4)C(C)=C1C3(C)C)[C@]1(OC(C)=O)CO[C@@H]1C[C@@H]2O [PACLITAXEL] | 7.9 |  |  |  |  |  |
| COc1ccc(S(=O)(=O)N2CCc3cccc(Nc4ccc(Cl)cc4)c32)cc1 |  | 1100 | 658 | 463 | 48.11 |  |
| COc1ccc(S(=O)(=O)N2CCc3cccc(Nc4ccc(C#N)cc4)c32)cc1 | 71.1 | 49.7 | 149 | 92 | 40.79 | IC50 [6]: 71.9 nM; IC50 [7]: 77.3 nM; IC50 (Tubulin): 3.2 µM; inhibition (Tubulin (Homo sapiens) [8]): 83.6%; inhibition (Tubulin (Homo sapiens) [9]): Active; inhibition (Tubulin (Homo sapiens) [10]): Dose-dependent effect; inhibition (Tubulin (Homo sapiens) [11]): Active; Activity (KB [12]): Dose-dependent effect; Activity (KB [13]): Active; Activity (KB [14]): Active; Activity (KB [15]): Active; Activity (HUVEC [16]): Dose-dependent effect; Activity (HUVEC [17]): Active; Activity (HUVEC [18]): Non-toxic; inhibition (Tubulin (Homo sapiens) [19]): 86.4% |
| COc1ccc(S(=O)(=O)N2CCc3cccc(Nc4ccc(C(=O)O)cc4)c32)cc1 |  | 846 | 2380 | 1390 | 33.94 |  |
| COc1ccc(Nc2cccc3c2N(S(=O)(=O)c2ccc(OC)cc2)CC3)cc1 |  | 1200 | 803 | 487 | 43.47 |  |
| COc1ccc(S(=O)(=O)N2CCc3cccc(Nc4ccc(F)cc4)c32)cc1 |  | 557 | 588 | 563 | 44.71 |  |
| COC(=O)c1ccc(Nc2cccc3c2N(S(=O)(=O)c2ccc(OC)cc2)CC3)cc1 |  | 93.5 | 678 | 487 | 42.74 | IC50 (Tubulin): 4.7 µM; inhibition (Tubulin (Homo sapiens) [8]): 41.4%; Ratio IC50 (KB [20]): 3; inhibition (Tubulin (Homo sapiens) [19]): 66.9% |
| COc1ccc(S(=O)(=O)N2CCc3cccc(Nc4ccc([N+](=O)[O-])cc4)c32)cc1 | 115 | 101 | 191 | 107 | 42.28 | IC50 [6]: 109 nM; IC50 [7]: 95.4 nM; IC50 (Tubulin): 3.7 µM; inhibition (Tubulin (Homo sapiens) [8]): 44%; Ratio IC50 (HT-29 [21]): 1.5; Ratio IC50 (MKN-45): 1.5; inhibition (Tubulin (Homo sapiens) [19]): 69.3% |
| COc1ccc(S(=O)(=O)N2CCc3cccc(Nc4ccc(F)c(F)c4)c32)cc1 |  | 412 | 968 | 726 | 45.49 |  |
